Our source for the IC50 values is US20240043405A1, “POTENT AND SELECTIVE IRREVERSIBLE INHIBITORS OF IRAK1” (Dana-Farber Cancer Institute, Inc., priority 2020, published 2024).

For orientation: IC50 means the point on the concentration scale where inhibition reaches its midpoint. Read a low IC50 as inhibition by little substance.

One test has as its target IRAK1 (Homo sapiens (Human), UniProt P51617). The test is described as follows: Adapta Universal Kinase Assay (ThermoFisher) against IRAK1. The format is biochemical. The note with it: IRAK1/Histone H3 (1-20) peptide, 60 minutes at room temperature. As for the experimental part:
To measure the IC50 values of the compounds herein against IRAK1, the Adapta Universal Kinase Assay (ThermoFisher) was used. Briefly, 100 nL of different concentrations of the compounds in 100% DMSO were added to each well of a 384-well plate (Corning Cat. #4512). 2.4 μL of 30 mM HEPES, 2.5 μL of 4×ATP solution (in water), and 5 μL of 2× IRAK1/Histone H3 (1-20) peptide mixture (prepared in 50 mM HEPES pH 7.5, 0.01% BRIJ-35, 10 mM MgCl2, 1 mM EGTA) were added to each well. The plate was shaken for 30 seconds and centrifuged for 1 minute at 1000×g. The plate was then incubated at room temperature for 60 minutes. 5 μL of Detection Mix was added to each well. The plate was shaken for 30 seconds and centrifuged for 1 minute at 1000×g. The plate was then incubated at room temperature for 60 minutes. The plate was subsequently read on a fluorescence plate reader, and the emissions ratio was calculated to determine the ratio of ATP to ADP. Emissions Ratio=AF647 Emission (665 nm)/Europium Emission (615 nm).

In a further test the target is IRAK4 (Homo sapiens (Human), UniProt Q9NWZ3). The test is described as follows: Z'-LYTE assay (ThermoFisher) against IRAK4. The format is biochemical. The settings on record: IRAK4/Ser/Thr 07, 60 minutes at room temperature. As for the experimental part: To measure the 050 values of compounds herein against IRAK4, a Z′-LYTE assay (ThermoFisher) was used. Briefly, 2.5 μL. of different concentrations of the compounds in 1% DMSO were added to 2.4 μL kinase buffer (50 mM HEPES pH 7.5, 0.01% BRIJ-35, 10 mM MgCl2, 1 mM EGTA) in each well of a 384-well plate (Corning Cat. #3676). 5 μL of 2×IRAK4/Ser/Thr 07 mixture (prepared in 50 mM HEPES pH 7.5, 0.01% BRIJ-35, 10 mM MnCl2, 2 mM OTT, and 0.02% NaN3) and 2.5 μL of 4×ATP solution (4×ATP, 50 mM HEPES, pH 7.5, 0.01% BRIJ-35, 10 mM MgCl2, 1 mM EGTA) were added to each well. The plate was shaken for 30 seconds, and then incubated at room temperature for 60 minutes. 5 μL of a 1:100000 dilution of Development Reagent A was added to each well. The plate was shaken for 30 seconds and incubated for 60 minutes at room temperature. The plate was subsequently read on a fluorescence plate reader, and the emissions ratio was calculated to determine the ratio of Ser/Thr 07 phosphorylated by the reaction. Emissions Ratio=Coumarin Emission (443 nm)/Flourescein Emission (520 nm).
Sequence of IRAK4 (Q9NWZ3 whole entry): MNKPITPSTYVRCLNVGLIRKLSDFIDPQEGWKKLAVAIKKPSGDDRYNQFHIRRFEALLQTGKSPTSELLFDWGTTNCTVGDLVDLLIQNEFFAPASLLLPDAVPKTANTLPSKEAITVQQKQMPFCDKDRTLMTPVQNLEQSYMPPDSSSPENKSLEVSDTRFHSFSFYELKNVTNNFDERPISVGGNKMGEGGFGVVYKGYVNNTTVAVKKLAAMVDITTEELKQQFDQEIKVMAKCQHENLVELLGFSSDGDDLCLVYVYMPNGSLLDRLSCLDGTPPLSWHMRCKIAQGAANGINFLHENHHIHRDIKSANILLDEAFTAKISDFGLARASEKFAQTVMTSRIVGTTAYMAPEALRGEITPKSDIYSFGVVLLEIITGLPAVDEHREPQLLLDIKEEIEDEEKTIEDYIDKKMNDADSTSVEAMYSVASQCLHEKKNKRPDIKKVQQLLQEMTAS

Sequence of IRAK1 (P51617 whole entry): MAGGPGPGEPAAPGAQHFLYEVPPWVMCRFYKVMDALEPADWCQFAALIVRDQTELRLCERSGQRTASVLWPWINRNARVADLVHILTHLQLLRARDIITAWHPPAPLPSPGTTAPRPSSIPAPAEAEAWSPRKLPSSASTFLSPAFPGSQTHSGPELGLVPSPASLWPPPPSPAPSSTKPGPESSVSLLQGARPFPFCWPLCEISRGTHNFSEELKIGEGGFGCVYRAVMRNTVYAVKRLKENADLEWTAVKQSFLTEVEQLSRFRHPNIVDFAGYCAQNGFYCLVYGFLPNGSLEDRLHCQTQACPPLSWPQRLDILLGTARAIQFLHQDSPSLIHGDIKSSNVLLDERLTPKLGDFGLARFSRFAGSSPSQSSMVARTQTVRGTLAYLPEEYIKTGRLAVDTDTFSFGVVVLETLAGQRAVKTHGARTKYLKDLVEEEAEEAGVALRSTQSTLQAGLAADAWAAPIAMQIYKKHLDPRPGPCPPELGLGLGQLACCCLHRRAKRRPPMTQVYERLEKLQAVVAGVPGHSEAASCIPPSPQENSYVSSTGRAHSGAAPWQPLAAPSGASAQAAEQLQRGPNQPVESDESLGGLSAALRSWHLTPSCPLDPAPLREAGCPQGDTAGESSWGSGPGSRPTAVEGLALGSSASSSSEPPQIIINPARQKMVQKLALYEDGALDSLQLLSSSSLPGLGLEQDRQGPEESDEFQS

In the case of `C=CC(=O)N[C@@H]1CCCC(C(=O)Nc2ccc(NC(=O)c3cccc(-c4ccn[nH]4)n3)cc2F)C1` (stereo partly shown) [Compound 001], the half-inhibitory concentration (IC50) against IRAK1 was 129 nM; at IRAK4, above 10000 nM.

Turning to `C=CC(=O)N[C@@H]1CCC[C@H](C(=O)Nc2ccc(NC(=O)c3cccc(-c4ccn[nH]4)n3)nc2)C1` [Compound 002, N-(5-((1S,3R)-3-acrylamidocyclohexane-1-carboxamido)pyridin-2-yl)-6-(1H-pyrazol-5-yl)-picolinamide], the results for the IC50 on IRAK1 and against IRAK4 were 257 nM and above 10000 nM, respectively.

Consider `C=CC(=O)N[C@@H]1CCCC(C(=O)Nc2ccc(NC(=O)c3cccc(-c4ccn[nH]4)n3)cc2C)C1` (stereo partly shown) [Compound 003], for which the figures for the IC50 on IRAK1 and at IRAK4 were 671 nM and above 10000 nM, respectively.

For the compound `C=CC(=O)N[C@H]1CCCC(C(=O)Nc2ccc(NC(=O)c3cccc(-c4ccn[nH]4)n3)nc2)C1` (stereo partly shown) [Compound 005], the half-inhibitory concentration (IC50) is 189 nM against IRAK1 and above 10000 nM against IRAK4.

As for `C=CC(=O)N[C@@H]1CNC[C@H](C(=O)Nc2ccc(NC(=O)c3cccc(-c4ccn[nH]4)n3)nc2)C1` [Compound 006, N-(5-((3R,5S)-5-acrylamidopiperidine-3-carboxamido)pyridin-2-yl)-6-(1H-pyrazol-5-yl)-picolinamide], the 50% inhibitory concentration (IC50) against IRAK1 amounted to 14 nM; against IRAK4, 4000 nM.

Turning to `C=CC(=O)N[C@@H]1CNCC(C(=O)Nc2ccc(NC(=O)c3cccc(-c4ccn[nH]4)n3)cc2F)C1` (stereo partly shown) [Compound 007], the IC50 is 150 nM on IRAK1 and above 10000 nM against IRAK4.

Turning to `C=CC(=O)N[C@H]1C[C@@H](C(=O)Nc2ccc(NC(=O)c3cccc(-c4ccn[nH]4)n3)nc2)CN(C)C1` [Compound 013, N-(5-((3R,5S)-5-acrylamido-1-methylpiperidine-3-carboxamido)pyridin-2-yl)-6-(1H-pyrazol-5-yl)picolinamide], the IC50 against IRAK1 is 18.5 nM; at IRAK4, above 10000 nM.

As for `C=CC(=O)NC12CC(C(=O)Nc3ccc(NC(=O)c4cccc(-c5ccn[nH]5)n4)cc3F)(C1)C2` [Compound 016], the 50% inhibitory concentration (IC50) stood at 301 nM at IRAK1 and 9930 nM at IRAK4.

On to `C=CC(=O)N1CC2(CC(n3cc(-c4ccc(NC(=O)c5cccc(-c6cnoc6)n5)nc4)nn3)C2)C1` [Compound 024, N-(5-(1-(2-acryloyl-2-azaspiro[3,3]heptan-6-yl)-1H-1,2,3-triazol-4-yl)pyridin-2-yl)-6-(isoxazol-4-yl)picolinamide], for which the concentration for half-maximal inhibition (IC50) at IRAK1 came out at 612 nM; at IRAK4, 3330 nM.

For `C=CC(=O)N[C@@H]1CCC[C@H](C(=O)Nc2ccc(NC(=O)c3cccc(-c4ccn[nH]4)n3)cc2)C1` [Compound 026, N-(4-((1 S,3R)-3-acrylamidocyclohexane-1-carboxamido)phenyl)-6-(1H-pyrazol-5-yl)-picolinamide], the half-maximal inhibitory concentration (IC50) is 68.1 nM on IRAK1 and above 10000 nM against IRAK4.

On to `C=CC(=O)N1CCC[C@H](C(=O)Nc2ccc(NC(=O)c3cccc(-c4ccn[nH]4)n3)nc2)C1` [Compound 027, (S)-N-(5-(1-acryloylpiperidine-3-carboxamido)pyridin-2-yl)-6-(1H-pyrazol-5-yl)picolinamide], for which the 50% inhibitory concentration (IC50) at IRAK1 amounted to 6.37 nM; against IRAK4, 1870 nM.

Consider `C=CC(=O)N1CCC[C@@H](C(=O)Nc2ccc(NC(=O)c3cccc(-c4ccn[nH]4)n3)nc2)C1` [Compound 028, (R)-N-(5-(1-acryloylpiperidine-3-carboxamido)pyridin-2-yl)-6-(1H-pyrazol-5-yl)picolinamide], for which the half-maximal inhibitory concentration (IC50) against IRAK1 was 12.5 nM; on IRAK4 it was 722 nM.

On to `C=CC(=O)N1CCC[C@H](C(=O)Nc2ccc(NC(=O)c3cccc(-c4cnoc4)n3)nc2)C1` [Compound 029, (S)-N-(5-(1-acryloylpiperidine-3-carboxamido)pyridin-2-yl)-6-(isoxazol-4-yl)picolinamide], for which the half-inhibitory concentration (IC50) against IRAK1 is 658 nM; at IRAK4, above 10000 nM.

`C=CC(=O)N1CCC[C@@H](C(=O)Nc2ccc(NC(=O)c3cccc(-c4cnoc4)n3)nc2)C1` [Compound 030, (R)-N-(5-(1-acryloylpiperidine-3-carboxamido)pyridin-2-yl)-6-(isoxazol-4-yl)picolinamide]: the IC50 stood at 399 nM on IRAK1 and 3330 nM against IRAK4.

With `C=CC(=O)N1CCC[C@H](C(=O)Nc2ccc(NC(=O)c3cccc(-c4ccn[nH]4)n3)cc2F)C1` [Compound 031, (S)-N-(4-(1-acryloylpiperidine-3-carboxamido)-3-fluorophenyl)-6-(1H-pyrazol-5-yl)picolinamide], the IC50 against IRAK1 came out at 40.1 nM; against IRAK4, 1110 nM.

Consider `C=CC(=O)N1CCC[C@H](C(=O)Nc2ccc(NC(=O)c3cccc(-c4cnoc4)n3)cc2F)C1` [Compound 032, (S)-N-(4-(1-acryloylpiperidine-3-carboxamido)-3-fluorophenyl)-6-(isoxazol-4-yl)picolinamide], for which the half-maximal inhibitory concentration (IC50) is 1190 nM against IRAK1 and above 10000 nM on IRAK4.

Regarding `C=CC(=O)N1CCC[C@@H](C(=O)Nc2ccc(NC(=O)c3cccc(-c4ccn[nH]4)n3)cc2F)C1` [Compound 033, (R)-N-(4-(1 acryloylpiperidine-3-carboxamido)-3-fluorophenyl)-6-(1H-pyrazol-5-yl)picolinamide], the results for the IC50 against IRAK1 and against IRAK4 were 74.2 nM and 2510 nM, respectively.

In the case of `C=CC(=O)N1CCC[C@@H](C(=O)Nc2ccc(NC(=O)c3cccc(-c4cnoc4)n3)cc2F)C1` [Compound 034, (R)-N-(4-(1-acryloylpiperidine-3-carboxamido)-3-fluorophenyl)66-(isoxazol-4-yl)picolinamide], the IC50 at IRAK1 worked out at 344 nM; on IRAK4 it was 2010 nM.

As to `C=CC(=O)N[C@H]1C[C@@H](C(=O)Nc2ccc(NC(=O)c3cccc(-c4ccn[nH]4)n3)nc2)CN(CC(F)(F)F)C1` [Compound 038, N-(5-((3R,5S)-5-acrylamido-1-(2,2,2-trifluoroethyl)piperidine-3-carboxamido)pyridin-2-yl)-6-(1H-pyrazol-5-yl)picolinamide], the IC50 against IRAK1 is 12.1 nM; on IRAK4, above 10000 nM.

Take `C=CC(=O)N[C@H]1C[C@@H](C(=O)Nc2ccc(NC(=O)c3cccc(-c4ccn[nH]4)n3)nc2)CN(CC(F)F)C1` [Compound 039, N-(5-((3R,5S)-5-acrylamido-1-(2,2-difluorethyl)piperidine-3-carboxamido)pyridin-2-yl)-6-(1H-pyrazol-5-yl)picolinamide]: the IC50 at IRAK1 was 14.9 nM; against IRAK4, above 10000 nM.
